Results published in patent US9453835B2, “Method for screening a modulator of a TMEM16 family member” (Kyoto University, priority 2012, dated 2016).

Tests used:
[1] = tested on: TMEM16D transformants of TMEM16F^−/− IFETs; assay: Internalization of NBD-PC and NBD-GalCer by TMEM16D transformants; type: cell-based, mouse; settings: 15° C.
Description: (§1) A and C, The ability of TMEM16 family members to internalize NBD-PC and NBD-GalCer. TMEM16F^−/− IFETs transformed with the indicated TMEM16 family member were treated at 15° C. with (+) or without (−) 250 nM A23187 in the presence of 100 nM NBD-PC for 4 min (A) or 250 nM NBD-GalCer for 5 min (C), and the internalized, or BSA-non extractable NBD-PC or NBD-GelCer, was quantified by FACSAria, and expressed in MFI.
B, Requirement of Ca^2+ for the constitutive internalization of NBD-PC by TMEM16D. The TMEM16D transformants of TMEM16F^−/− IFETs were treated with 40 μM BAPTA-AM for 30 min in Ca^2+-free RPMI, and incubated at 15° C. for 8 min in HBSS containing 1 mM CaCl2 and 100 nM NBD-PC. The internalized NBD-PC was determined as above, and expressed as percentage of the internalized NBD-PC obtained without BAPTA-AM treatment.
(§2) Cells (10^6) were stimulated at 15° C. with 250 nM A23187 in 1 ml Hank's Balanced Salt Solution (HBSS) (Gibco, Billings, Mont.) containing 1 mM CaCl2, with a fluorescent probe, 100 nM 1-oleoyl-2-{6-[(7-nitro-2-1,3-benzoxadiazol-4-yl)amino]hexanoyl}-sn-glycero-3-phosphocholine (NBD-PC) (Avanti Polar Lipids, Alabaster, Ala.), or 250 nM N-[6-[(7-nitro-2-1,3-benzoxadiazol-4-yl)amino]hexanoyl]-D-galactosyl-β1-1′-sphingosine (C6-NBD galactosyl ceramide or NBD-GalCer) (Avanti Polar Lipids). Aliquots (150 μl) were mixed with 150 μl HBSS containing 5 mg/ml fatty-acid free BSA (Sigma-Aldrich) and 500 nM Sytoxblue (Molecular Probes, Eugene, Oreg.), and analyzed by FACSAria.

TMEM16F^flox/flox IFETs [2] = assay: Internalization of NBD-PC and NBD-GalCer; type: cell-based, mouse; settings: 15° C., 250 nM A23187
Description: B and C, Ca^2+ ionophore induced lipid internalization. TMEM16F^flox/flox and TMEM16F^−/− IFETs were treated at 15° C. with 250 nM A23187 in the presence of 100 nM NBD-PC (B) or 250 nM NBD-GalCer (C). Using aliquots of the reaction mixture, the BSA-non extractable level of NBD-PC or NBD-GalCer in the SytoxBlue-negative population was determined at the indicated time by FACSAria, and expressed in MFI.
as §2

TMEM16F^flox/flox IFETs [3] = assay: Ca2+-induced PE exposure (binding of RO-peptide); type: cell-based, mouse; settings: data not shown
TMEM16F^flox/flox IFETs [4] = assay: Ca2+-induced PS exposure (Cy5-Annexin V binding, flow cytometry); type: cell-based, mouse; settings: 20° C., 3.0 μM A23187
Description: (§3) A, Ca^2+ ionophore induced PS exposure. TMEM16F^flox/flox and TMEM16F^−/− IFETs were treated at 20° C. with 3.0 μM A23187 in the presence of Cy5-labeled Annexin V. Annexin V-binding to the cells was monitored by flow cytometry for 10 min, and expressed in MFI (mean fluorescence intensity).
(§4) The Ca^2+-induced PS exposure were examined as described (20). In brief, 5×10^5 cells were stimulated at 20° C. with 3.0 μM A23187 in 500 μl of 10 mM Hepes-NaOH buffer (pH 7.4) containing 140 mM NaCl, 2.5 mM CaCl2 and 5 μg/ml Propidium Iodide (PI), and 1000-fold-diluted Cy5-labeled Annexin V (Bio Vision, Milpitas, Calif.), and applied to the injection chamber of a FACSAria (BD Bioscience, Franklin Lakes, N.J.) set at 20° C.

TMEM16F^−/− IFETs = assay: as above; type: cell-based, mouse; settings: 20° C., 3.0 μM A23187
Description: as §3, §4

[5] = tested on: IFETs expressing TMEM16A, 16B, 16E, 16H, or 16K; assay: Internalization of NBD-PC by TMEM16 transformants without scramblase activity; type: cell-based, mouse; settings: 250 nM A23187
Description: as §1, §2

[6] = tested on: IFETs expressing mouse Fas; assay: FasL-induced apoptosis; type: cell-based
Description: E-G, FasL-induced apoptosis. Fas-expressing TMEM16F^flox/flox and TMEM16F^−/− IFETs were treated at 37° C. for 2 h with 60 units/ml FasL in the absence or presence of 50 μM Q-VD-OPh. In E, the cells were permeabilized with 90% methanol, and stained with rabbit anti-active caspase 3 followed by incubation with Alexa 488-labeled goat anti-rabbit IgG. In F, cells were stained with Cy5-labeled Annexin V and PI and analyzed by FACSAria. In G, cells were analyzed by FACSAria before and after FasL treatment; the FSC and SSC profiles are shown.
Apoptosis was induced with FasL as described (25). In brief, IFETs expressing mouse Fas were treated with 60 units/ml FasL at 37° C. for 2 h, and PS exposure was determined by flow cytometry with Cy5-Annexin V. To detect activated caspase 3, cells were fixed at 37° C. for 10 min in PBS containing 1% paraformaldehyde, permeabilized with 90% methanol at −20° C., and stained with rabbit mAb against active caspase 3 (Cell Signaling, Danvers, Mass.). Cells were then incubated with Alexa 488-labeled goat anti-rabbit IgG (Invitrogen), and analyzed by FACSAria.

[7] = TMEM16F^flox/flox and TMEM16F^−/− IFETs, to the same extent

## CNc1ccc2oc(C[C@H]3O[C@@]4(CC[C@H]3C)O[C@H]([C@H](C)C(=O)c3ccc[nH]3)[C@H](C)C[C@H]4C)nc2c1C(=O)O [A23187]
[1]; 250 nM A23187, 100 nM NBD-PC, 4 min, versus constitutive uptake
  NBD-PC internalization: strongly enhanced
[1]; 250 nM A23187, 250 nM NBD-GalCer, 5 min, versus constitutive uptake
  NBD-GalCer uptake: enhanced
TMEM16F^flox/flox IFETs [2]
  internalization of NBD-PC and NBD-GalCer: internalized NBD-PC and NBD-GalCer
TMEM16F^flox/flox IFETs [3]
  PE-exposure: caused rapid PE-exposure
TMEM16F^flox/flox IFETs [4]
  PS exposure: quickly exposed PS
TMEM16F^−/− IFETs
  PS exposure: completely absent
[5]
  NBD-PC uptake: did not induce

## CC(=O)OCOC(=O)CN(CC(=O)OCOC(C)=O)c1ccccc1OCCOc1ccccc1N(CC(=O)OCOC(C)=O)CC(=O)OCOC(C)=O [BAPTA-AM]
[1]; pre-treatment 40 μM BAPTA-AM 30 min, 100 nM NBD-PC, 8 min
  NBD-PC uptake observed without Ca2+-ionophore: reduced

B1: FasL: Leucine-zipper-tagged human FasL produced in COS7 cells (protein)
chain: QIGHPSPPPEKKELRKVAHLTGKSNSRSMPLEWEDTYGIVLLSGVKYKKGGLVINETGLYFVYSKVYFRGQSCNNLPLSHKVYMRNSKYPQDLVMMEGKMMSYCTTGQMWARSSYLGAVFNLTSADHLYVNVSELSLVNFEESQTFFGLYKL
modifications: left off: small tags and cut ends
notes: Leucine-zipper-tagged human FasL produced in COS7 cells
[6]; 60 units/ml FasL, 37° C., 2 h
  caspase 3 activation: efficiently activated
[6]; 60 units/ml FasL, 37° C., 2 h, Cy5-Annexin V
  PS exposure: quickly responded by exposing PS
[6]; [7]
  cell size (forward-scattered light, FSC): decreased
  cellular granularity (side-scattered light, SSC): increased
